Values joined by “and” are separate entries in the source; they are usually repeats but may differ in a detail not shown here. Equal values may be shown once.
Legend:
NAALADase = NAALADase (Homo sapiens, UniProt Q04609); assay: In vitro inhibition of NAALADase activity; type: biochemical
[1] = Passive avoidance anxiolytic model (shuttlebox, latency to cross); type: in vivo; conditions: for Latency to Cross, Mean / Latency to Cross, individual animals: Table II
Source text: The passive avoidance test consists of an acquisition and a retention trial. On the day prior to dosing, the animal is placed into the shuttlebox and allowed to acclimate. A conditioned stimulus (light) is presented for approximately 100 seconds. When the animal crosses to the dark compartment, a mild (0.5 mA) footshock is presented until the animal returns to the lighted compartment or for approximately 10 seconds. Animals failing to cross during acquisition trial is randomly replaced. The day following acquisition, animals are administered test article, saline or flurazepam 10 minutes prior to being placed in the shuttlebox and tested for retention as described above. Latency to cross (in seconds) is recorded.

[2] = Flurazepam 3 mg/kg IP group, acquisition is on the day prior to dosing
[3] = Flurazepam 5 mg/kg IP group, Table I second study, day prior to dosing
[4] = Flurazepam 5 mg/kg IP, Table I second study

NAALADase, sequence (Q04609 whole entry): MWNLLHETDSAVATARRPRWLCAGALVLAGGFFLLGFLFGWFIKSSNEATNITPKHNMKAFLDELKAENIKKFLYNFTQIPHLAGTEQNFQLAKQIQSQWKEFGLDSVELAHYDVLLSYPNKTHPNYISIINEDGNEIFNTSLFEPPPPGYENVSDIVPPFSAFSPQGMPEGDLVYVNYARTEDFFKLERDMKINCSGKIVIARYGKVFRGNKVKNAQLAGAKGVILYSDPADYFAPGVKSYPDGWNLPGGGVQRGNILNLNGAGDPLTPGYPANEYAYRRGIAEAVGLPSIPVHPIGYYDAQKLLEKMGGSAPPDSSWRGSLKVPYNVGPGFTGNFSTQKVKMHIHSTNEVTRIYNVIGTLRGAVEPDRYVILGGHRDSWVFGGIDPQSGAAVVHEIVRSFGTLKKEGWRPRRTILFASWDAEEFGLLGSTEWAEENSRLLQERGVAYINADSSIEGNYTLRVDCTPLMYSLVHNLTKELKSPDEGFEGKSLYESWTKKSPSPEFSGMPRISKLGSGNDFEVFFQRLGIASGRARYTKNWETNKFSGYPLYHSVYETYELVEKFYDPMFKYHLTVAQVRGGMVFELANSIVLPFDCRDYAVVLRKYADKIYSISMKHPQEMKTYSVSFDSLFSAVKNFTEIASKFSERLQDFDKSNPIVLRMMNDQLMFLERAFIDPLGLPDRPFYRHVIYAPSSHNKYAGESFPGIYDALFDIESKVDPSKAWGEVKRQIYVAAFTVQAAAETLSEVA

Row | Structure (SMILES) | Ki (NAALADase) | anxiolytic properties in passive avoidance ([1]; Example 14) | performance compared with flurazepam in passive avoidance ([1]; Example 14, in some experiments) | Latency to Cross, Mean ([1]; Compound 1 1 mg/kg PO) | Latency to Cross, individual animals ([1]; Compound 1 1 mg/kg PO, 1 mg/kg) | Latency to Cross, Mean ([1]; Compound 1 10 mg/kg PO) | Latency to Cross, individual animals ([1]; Compound 1 10 mg/kg PO, 10 mg/kg) | Latency to Cross, Mean ([1]; Compound 1 100 mg/kg PO) | Latency to Cross, individual animals ([1]; Compound 1 100 mg/kg PO, 100 mg/kg) | Latency to Cross, Acquisition Trial, MEAN [1, 2] | Latency to Cross, Acquisition Trial, individual animals [1, 2] | Latency to Cross, Retention Trial, MEAN ([1]; Flurazepam 3 mg/kg IP, 10 minutes before test) | Latency to Cross, Retention Trial, individual animals ([1]; Flurazepam 3 mg/kg IP, 10 minutes before test, stimulus about 100 seconds) | Latency to Cross, Acquisition Trial, MEAN [1, 3] | Latency to Cross, Acquisition Trial, individual animals [1, 3] | Latency to Cross, Retention Trial, MEAN [1, 4] | Latency to Cross, Retention Trial, individual animals [1, 4] | Latency to Cross, Mean ([1]; Flurazepam 5 mg/kg IP) | Latency to Cross, individual animals ([1]; Flurazepam 5 mg/kg IP)
1 | O=C(O)CCC(CCS)C(=O)O (stereo not shown) [Compound 1, 2-(2-sulfanylethyl)pentanedioic acid] | 510 nM | exhibit anxiolytic properties | performed better than the known anxiolytic agent, flurazepam | 34.8 s | 5.9 seconds and 15.8 seconds and 28.4 seconds and 30.3 seconds and 100.0 seconds (3×) and 12.3 seconds and 27.9 seconds and 23.5 seconds and 3.9 seconds and 13.1 seconds and 0.2 seconds and 41.3 seconds and 20.1 seconds | 23.6 s | 1.8 s and 28.5 s and 64.1 s and 3.2 s and 14.7 s and 10.3 s and 3.3 s and 24.6 s and 9.4 s and 100.0 s and 22.7 s and 6.6 s and 14.0 s and 38.8 s and 12.1 s | 18.0 s | 15.0 s and 19.2 s and 5.6 s and 19.3 s and 6.2 s and 55.7 s and 25.5 s and 21.5 s and 6.6 s and 15.1 s and 8.4 s and 17.4 s and 0.5 s and 0.7 s and 52.8 s |  |  |  |  |  |  |  |  |  | 
2 | CCN(CC)CCN1C(=O)CN=C(c2ccccc2F)c2cc(Cl)ccc21 [Flurazepam, flurazepam, reference compound] |  |  |  |  |  |  |  |  |  | 10.1 s | 7.0 s and 9.5 s and 8.8 s and 2.8 s and 19.3 s and 5.4 s and 8.2 s and 28.2 s and 7.1 s and 2.4 s and 16.7 s and 8.4 s and 11.3 s and 6.9 s and 9.1 s | 47.5 s | 83.3 seconds and 100.0 seconds (4×) and 5.5 seconds and 4.7 seconds and 16.1 seconds and 65.3 seconds and 6.9 seconds and 2.1 seconds and 34.1 seconds and 2.2 seconds and 47.5 seconds and 34.9 seconds | 8.4 s | 6.6 s and 39.8 s and 2.7 s and 10.6 s and 0.5 s and 0.1 s and 7.4 s and 4.0 s and 4.9 s and 14.7 s and 10.1 s and 9.5 s and 1.9 s and 12.9 s and 0.7 s | 20.8 s | 11.2 s and 56.3 s and 10.5 s and 23.9 s and 6.5 s and 6.0 s and 13.4 s and 0.8 s and 21.4 s and 2.9 s and 67.2 s and 19.0 s and 58.3 s and 4.8 s and 9.7 s | 12.9 s | 4.7 seconds and 9.6 seconds and 4.1 seconds (2×) and 26.0 seconds and 0.3 seconds (2×) and 4.0 seconds (2×) and 8.0 seconds and 3.5 seconds and 12.0 seconds and 16.9 seconds and 89.0 seconds and 6.4 seconds

Reference: patent US6376478B1, “Pharmaceutical compositions and methods for treating anxiety, anxiety disorders and memory impairment using naaladase inhibitors” (Guilford Pharmaceuticals Inc., priority 1999, dated 2002)
